Laboratory results: patent US10471046B2, “Method for treating, preventing, or reducing the risk of skin infection” (Melinta Subsidiary Corp., priority 2014, dated 2019)
≈ marks a conversion by molar mass, not a printed value.

The compounds below were run on S. aureus (assay: Minimum inhibitory concentrations (MICs) for S. aureus of exemplary compounds (Table 2)). Settings: Staphylococcus aureus, minimum inhibitory concentrations for S. aureus; read-out: MICs.
Format: cell-based
Method in brief: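 Growth of S. aureus in media with or without compound, by broth microdilution in microtiter trays following NCCLS M7-A5 guidelines. Values are MICs in μg/mL.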

| Structure (SMILES) | MIC |
| --- | --- |
| CCSc1nnnn1Cc1ccc(-c2ccc(N3C[C@H](CNC(C)=O)OC3=O)cc2F)cc1 [Compound 1081, N-{3-[4′-(5-Ethylsulfanyl-tetrazol-1-ylmethyl)-2-fluoro-biphenyl-4-yl]-2-oxo-oxazolidin-5-(S)-ylmethyl}-acetamide] | 2 µg/mL (≈ 4.25 µM) |
| COc1ccc(CNCc2ccc(-c3ccc(N4C[C@H](CNC(C)=O)OC4=O)cc3F)cc2)cn1 [Compound 4054, N-[3-(2-Fluoro-4′-{[(6-methoxy-pyridin-3-ylmethyl)-amino]-methyl}-biphenyl-4-yl)-2-oxo-oxazolidin-5-(S)-ylmethyl]-acetamide] | 1 µg/mL (≈ 2.09 µM) |
| CC(=O)NC[C@H]1CN(c2ccc(-c3ccc(CNC(=O)/C=C/c4cncnc4)cc3)c(F)c2)C(=O)O1 [Compound 4006, N-{4′-[5-(S)-(Acetylamino-methyl)-2-oxo-oxazolidin-3-yl]-2′-fluoro-biphenyl-4-ylmethyl}-3-pyrimidin-5-yl-acrylamide] | 8 µg/mL (≈ 16.3 µM) |
| CC(=O)NC[C@H]1CN(c2ccc(-c3ccc(Cn4cnc5c(=O)[nH]cnc54)cc3)c(F)c2)C(=O)O1 [Compound 1111, N-{3-[2-Fluoro-4′-(6-oxo-1,6-dihydro-purin-9-ylmethyl)-biphenyl-4-yl]-2-oxo-oxazolidin-5-(S)-ylmethyl}-acetamide] | 2 µg/mL (≈ 4.2 µM) |
| CC(=O)NC[C@H]1CN(c2ccc(-c3ccc(CNCc4c(C)[nH]c(=O)[nH]c4=O)cc3)c(F)c2)C(=O)O1 [Compound 4057, N-[3-(2-Fluoro-4′-{[(6-methyl-2,4-dioxo-1,2,3,4-tetrahydro-pyrimidin-5-ylmethyl)-amino]-methyl}-biphenyl-4-yl)-2-oxo-oxazolidin-5-(S)-ylmethyl]-acetamide] | 16 µg/mL (≈ 32.3 µM) |
| CC(=O)NC[C@H]1CN(c2ccc(-c3ccc(CNCc4ccoc4)cn3)c(F)c2)C(=O)O1 [Compound 4053, N-{3-[3-Fluoro-4-(5-{[(furan-3-ylmethyl)-amino]-methyl}-pyridin-2-yl)-phenyl]-2-oxo-oxazolidin-5-(S)-ylmethyl}-acetamide] | 4 µg/mL (≈ 9.12 µM) |
| CC(=O)NC[C@H]1CN(c2ccc(-c3ccc(CNCc4cc5ccccc5n4C)cc3)c(F)c2)C(=O)O1 [Compound 4049, N-[3-(2-Fluoro-4′-{[(1-methyl-1H-indol-2-ylmethyl)-amino]-methyl}-biphenyl-4-yl)-2-oxo-oxazolidin-5-(S)-ylmethyl]-acetamide] | 1 µg/mL (≈ 2 µM) |
| CC(=O)NC[C@H]1CN(c2ccc(-c3ccc(CN4CCN(CC#N)CC4)c(F)c3)c(F)c2)C(=O)O1 [Compound 1005, N-{3-[4′-(4-Cyanomethyl-piperazin-1-ylmethyl)-2,3′-difluoro-biphenyl-4-yl]-2-oxo-oxazolidin-5-(S)-ylmethyl}-acetamide] | 2 µg/mL (≈ 4.14 µM) |
| CC(=O)NC[C@H]1CN(c2ccc(-c3ccc(CNCc4cccnc4)cc3)c(F)c2)C(=O)O1 [Compound 4025, N-[3-(2-Fluoro-4′-{[(pyridin-3-ylmethyl)-amino]-methyl}-biphenyl-4-yl)-2-oxo-oxazolidin-5-(S)-ylmethyl]-acetamide] | 1 µg/mL (≈ 2.23 µM) |
| CC(=O)NC[C@H]1CN(c2ccc(-c3ccc(CN4CCN(c5ncc(C(F)(F)F)cc5Cl)CC4)cc3)c(F)c2)C(=O)O1 [Compound 1038, N-(3-{4′-[4-(3-Chloro-5-trifluoromethyl-pyridin-2-yl)-piperazin-1-ylmethyl]-2-fluoro-biphenyl-4-yl}-2-oxo-oxazolidin-5-(S)-ylmethyl)-acetamide] | 128 µg/mL (≈ 211 µM) |
| CC(=O)NC[C@H]1CN(c2ccc(-c3ccc(CSc4nnc(N)[nH]4)cc3)c(F)c2)C(=O)O1 [Compound 2028, N-{3-[4′-(5-Amino-4H-[1,2,4]triazol-3-ylsulfanylmethyl)-2-fluoro-biphenyl-4-yl]-2-oxo-oxazolidin-5-(S)-ylmethyl}-acetamide] | 0.25 µg/mL (≈ 0.548 µM) |
| CC(=O)NC[C@H]1CN(c2ccc(-c3ccc(CNCc4cccn4C)cc3)c(F)c2)C(=O)O1 [Compound 4059, N-[3-(2-Fluoro-4′-{[(1-methyl-1H-pyrrol-2-ylmethyl)-amino]-methyl}-biphenyl-4-yl)-2-oxo-oxazolidin-5-(S)-ylmethyl]-acetamide] | 2 µg/mL (≈ 4.44 µM) |
| CC(=O)NC[C@H]1CN(c2ccc(-c3ccc(CN(C)Cc4cc(Cl)cc(Cl)c4)cc3)c(F)c2)C(=O)O1 [Compound 4046, N-[3-(4′-{[(3,5-Dichloro-benzyl)-methyl-amino]-methyl}-2-fluoro-biphenyl-4-yl)-2-oxo-oxazolidin-5-(S)-ylmethyl]-acetamide] | 4 µg/mL (≈ 7.54 µM) |

Next, values leading:

| MIC | Structure (SMILES) |
| --- | --- |
| 8 µg/mL (≈ 14.4 µM) | CC(=O)NC[C@H]1CN(c2ccc(-c3ccc(CNCC4CCN(C(=O)OC(C)(C)C)CC4)cc3)c(F)c2)C(=O)O1 [Compound 4298, 4-[({4′-[5-(S)-(Acetylamino-methyl)-2-oxo-oxazolidin-3-yl]-2′-fluoro-biphenyl-4-ylmethyl}-amino)-methyl]-piperidine-1-carboxylic acid tert-butylester] |
| 0.5 µg/mL (≈ 1.13 µM) | CC(=O)NC[C@H]1CN(c2ccc(-c3ccc(CNCC4OCCO4)cc3)c(F)c2)C(=O)O1 [Compound 4209, N-[3-(4′-{[([1,3]Dioxolan-2-ylmethyl)-amino]-methyl}-2-fluoro-biphenyl-4-yl)-2-oxo-oxazolidin-5-(S)-ylmethyl]-acetamide] |
| 0.25 µg/mL (≈ 0.501 µM) | CC(=O)NC[C@H]1CN(c2ccc(-c3ccc(CNCCCSc4cnn[nH]4)cc3)c(F)c2)C(=O)O1 [Compound 5002, N-[3-(2-Fluoro-4′-{[3-(3H-[1,2,3]triazol-4-ylsulfanyl)-propylamino]-methyl}-biphenyl-4-yl)-2-oxo-oxazolidin-5-(S)-ylmethyl]-acetamide] |
| 2 µg/mL (≈ 4.02 µM) | CC(=O)NC[C@H]1CN(c2ccc(-c3ccc(CN(Cc4csnn4)C(C)=O)cc3)c(F)c2)C(=O)O1 [Compound 4204, N-(3-{4′-[(Acetyl-[1,2,3]thiadiazol-4-ylmethyl-amino)-methyl]-2-fluoro-biphenyl-4-yl}-2-oxo-oxazolidin-5-(S)-ylmethyl)-acetamide] |
| 16 µg/mL (≈ 28.6 µM) | CC(=O)NC[C@H]1CN(c2ccc(-c3ccc(CNC(=O)COc4ccc(Cl)cc4Cl)cc3)c(F)c2)C(=O)O1 [Compound 5014, N-{4′-[5-(S)-(Acetylamino-methyl)-2-oxo-oxazolidin-3-yl]-2′-fluoro-biphenyl-4-ylmethyl}-2-(2,4-dichloro-phenoxy)-acetamide] |
| 0.25 µg/mL (≈ 0.466 µM) | CC(=O)NC[C@H]1CN(c2ccc(-c3ccc(CNCc4csc(-c5cccs5)n4)cc3)c(F)c2)C(=O)O1 [Compound 4113, N-[3-(2-Fluoro-4′-{[(2-thiophen-2-yl-thiazol-4-ylmethyl)-amino]-methyl}-biphenyl-4-yl)-2-oxo-oxazolidin-5-(S)-ylmethyl]-acetamide] |
| 2 µg/mL (≈ 4.32 µM) | CC(=O)NC[C@H]1CN(c2ccc(-c3ccc(C(=O)NCc4ccncc4)cc3)c(F)c2)C(=O)O1 [Compound 4102, 4′-[5-(S)-(Acetylamino-methyl)-2-oxo-oxazolidin-3-yl]-2′-fluoro-biphenyl-4-carboxylic acid (pyridin-4-ylmethyl)-amide] |
| 4 µg/mL (≈ 8.65 µM) | CC(=O)NC[C@H]1CN(c2ccc(-c3ccc(CNCCc4ccccn4)cc3)c(F)c2)C(=O)O1 [Compound 4087, N-(3-{2-Fluoro-4′-[(2-pyridin-2-yl-ethylamino)-methyl]-biphenyl-4-yl}-2-oxo-oxazolidin-5-(S)-ylmethyl)-acetamide] |
| 2 µg/mL (≈ 4.45 µM) | CC(=O)NC[C@H]1CN(c2ccc(-c3ccc(CNCc4ccncc4)nc3)c(F)c2)C(=O)O1 [Compound 4073, N-{3-[3-Fluoro-4-(6-{[(pyridin-4-ylmethyl)-amino]-methyl}-pyridin-3-yl)-phenyl]-2-oxo-oxazolidin-5-(S)-ylmethyl}-acetamide] |
